Assays:
ERp72 [1] = molecular target: T1, ERp72 (Rattus norvegicus, UniProt P38659); assay: NeutrAvidin pull-down from platelet lysate, LC-MS/MS and immunoblot, competed by excess ADTM; assay type: cell-based
T1 construct: gene Pdia4; endogenous, rat platelet lysate
T1 sequence (P38659 21-643): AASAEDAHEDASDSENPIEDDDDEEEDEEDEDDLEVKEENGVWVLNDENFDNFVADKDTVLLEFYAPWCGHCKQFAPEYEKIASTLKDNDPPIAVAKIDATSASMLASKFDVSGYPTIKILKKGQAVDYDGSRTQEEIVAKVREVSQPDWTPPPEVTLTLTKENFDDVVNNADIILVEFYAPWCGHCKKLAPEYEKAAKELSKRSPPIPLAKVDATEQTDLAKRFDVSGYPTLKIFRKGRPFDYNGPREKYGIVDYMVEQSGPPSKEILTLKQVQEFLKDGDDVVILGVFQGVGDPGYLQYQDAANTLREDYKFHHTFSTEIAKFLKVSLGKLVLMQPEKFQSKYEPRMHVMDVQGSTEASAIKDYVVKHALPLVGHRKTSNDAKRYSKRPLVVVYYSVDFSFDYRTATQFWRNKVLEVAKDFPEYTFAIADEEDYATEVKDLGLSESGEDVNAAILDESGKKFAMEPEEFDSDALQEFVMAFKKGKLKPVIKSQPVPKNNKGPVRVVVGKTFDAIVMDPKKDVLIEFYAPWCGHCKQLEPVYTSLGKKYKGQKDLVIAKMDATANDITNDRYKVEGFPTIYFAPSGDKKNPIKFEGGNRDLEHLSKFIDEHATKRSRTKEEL

ERp5 [2] = molecular target: T2, ERp5 (Rattus norvegicus, UniProt Q63081); assay: as above; assay type: cell-based
T2 construct: gene Pdia6; endogenous, rat platelet lysate
T2 sequence (Q63081 20-440): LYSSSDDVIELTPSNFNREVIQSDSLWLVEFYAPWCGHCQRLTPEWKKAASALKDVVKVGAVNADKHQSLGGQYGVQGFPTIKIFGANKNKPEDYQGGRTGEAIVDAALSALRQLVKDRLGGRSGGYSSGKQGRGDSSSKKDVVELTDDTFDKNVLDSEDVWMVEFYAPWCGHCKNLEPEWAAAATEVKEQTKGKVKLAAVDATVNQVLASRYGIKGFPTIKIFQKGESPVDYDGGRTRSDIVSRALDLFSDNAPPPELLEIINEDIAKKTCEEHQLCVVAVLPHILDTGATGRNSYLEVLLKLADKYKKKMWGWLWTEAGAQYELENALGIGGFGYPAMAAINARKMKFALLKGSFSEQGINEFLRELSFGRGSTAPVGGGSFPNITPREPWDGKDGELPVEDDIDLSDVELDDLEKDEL

ERp57 [3] = molecular target: T3, ERp57 (Rattus norvegicus, UniProt P11598); assay: as above; assay type: cell-based
T3 construct: gene Pdia3; endogenous, rat platelet lysate
T3 sequence (P11598 25-505): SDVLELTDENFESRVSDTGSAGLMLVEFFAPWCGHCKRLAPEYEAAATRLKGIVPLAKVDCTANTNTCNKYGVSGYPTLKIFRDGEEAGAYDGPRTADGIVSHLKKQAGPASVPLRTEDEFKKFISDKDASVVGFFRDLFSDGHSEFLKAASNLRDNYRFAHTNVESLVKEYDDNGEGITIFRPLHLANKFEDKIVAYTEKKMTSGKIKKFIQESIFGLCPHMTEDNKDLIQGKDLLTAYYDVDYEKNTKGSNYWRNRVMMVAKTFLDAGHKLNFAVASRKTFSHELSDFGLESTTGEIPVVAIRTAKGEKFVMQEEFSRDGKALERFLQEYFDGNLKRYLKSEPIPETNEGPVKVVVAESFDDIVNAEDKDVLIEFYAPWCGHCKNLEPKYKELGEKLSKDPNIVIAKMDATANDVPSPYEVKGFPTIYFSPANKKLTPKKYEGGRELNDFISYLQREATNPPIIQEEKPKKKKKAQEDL

ERp5 [4] = molecular target: T2, ERp5; assay: competition of BAA pull-down by excess untagged ADTM, immunoblot; […] inhibition of ERp5 activity at […]; assay type: cell-based
ERp57 [5] = molecular target: T4, ERp57 (Homo sapiens, UniProt P30101); assay: insulin reduction turbidity assay with recombinant ERp57; irreversible after dilution; also competes with BAA in rat platelet lysate pull-down; assay type: biochemical
T4 construct: gene PDIA3; human recombinant ERp57
T4 sequence (P30101 25-505): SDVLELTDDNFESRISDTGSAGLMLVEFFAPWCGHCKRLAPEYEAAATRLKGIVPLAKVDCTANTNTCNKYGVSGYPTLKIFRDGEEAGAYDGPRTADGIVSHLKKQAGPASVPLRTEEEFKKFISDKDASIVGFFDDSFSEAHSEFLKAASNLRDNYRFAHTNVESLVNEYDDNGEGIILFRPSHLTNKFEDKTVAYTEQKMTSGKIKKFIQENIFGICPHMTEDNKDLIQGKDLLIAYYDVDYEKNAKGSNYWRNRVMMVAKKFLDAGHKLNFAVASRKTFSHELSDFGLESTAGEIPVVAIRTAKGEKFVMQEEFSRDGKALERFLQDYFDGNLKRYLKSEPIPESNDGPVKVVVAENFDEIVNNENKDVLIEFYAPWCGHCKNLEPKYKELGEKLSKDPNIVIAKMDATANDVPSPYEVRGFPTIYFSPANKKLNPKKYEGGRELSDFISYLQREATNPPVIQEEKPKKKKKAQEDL

ERp72 [6] = molecular target: T1, ERp72; assay: competition of BAA pull-down by excess untagged ADTM, immunoblot; only […] inhibition of recombinant ERp72 at […]; assay type: cell-based
PDI = molecular target: T5, PDI (Homo sapiens, UniProt P07237); assay: insulin reduction turbidity assay with recombinant PDI (weak); assay type: biochemical
T5 construct: gene P4HB; recombinant PDI
T5 sequence (P07237 18-508): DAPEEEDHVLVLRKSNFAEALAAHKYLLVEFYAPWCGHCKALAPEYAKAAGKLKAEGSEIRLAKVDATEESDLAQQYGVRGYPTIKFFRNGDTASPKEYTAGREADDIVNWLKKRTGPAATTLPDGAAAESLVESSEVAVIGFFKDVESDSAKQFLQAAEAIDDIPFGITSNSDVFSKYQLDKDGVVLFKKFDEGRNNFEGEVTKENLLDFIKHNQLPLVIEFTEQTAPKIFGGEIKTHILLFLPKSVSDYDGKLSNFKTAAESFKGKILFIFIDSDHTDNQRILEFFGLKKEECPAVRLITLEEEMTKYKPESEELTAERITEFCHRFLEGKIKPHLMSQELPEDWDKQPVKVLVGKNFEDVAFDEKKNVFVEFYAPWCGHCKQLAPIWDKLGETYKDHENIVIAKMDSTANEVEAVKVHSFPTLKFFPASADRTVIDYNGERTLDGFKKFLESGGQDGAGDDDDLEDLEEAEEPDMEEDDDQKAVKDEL

With `O=C1N[C@H]2[C@H](CS[C@H]2CCCCC(=O)O[C@H](Cc2ccc(O)c(O)c2)C(=O)OCc2ccccc2)N1` [BAA] as the compound, how does the “NeutrAvidin pull-down from platelet lysate, LC-MS/MS and immunoblot, competed by” value (from here on “NeutrAvidin pull-down”) (ERp72 [1]) read?
Its value is “We confirmed the identity of the pulled-down proteins as ERp72, ERp57 and ERp5 with their respective antibodies”.

What about the “NeutrAvidin pull-down” value (ERp5 [2]) of the same compound?
The value was “We confirmed the identity of the pulled-down proteins as ERp72, ERp57 and ERp5 with their respective antibodies”.

What about the “NeutrAvidin pull-down” value (ERp57 [3]) of the same compound?
The value was “specificity of the binding between BAA and these targets (ERp72, ERp57 and ERp5) could be demonstrated by the competition”.

With `CC(=O)Oc1ccc(C[C@@H](OC(C)=O)C(=O)OCc2nc(C)c(C)nc2C)cc1OC(C)=O` [ADTM] as the compound, how does the inhibition at 300 µM (ERp5 [4]) read?
The inhibition at 300 µM was 38%.

And the IC50 (ERp57 [5])?
Its IC50 is 100 to 300 µM.

And the inhibition at 300 µM (ERp72 [6])?
Its inhibition at 300 µM is 18%.

What about the inhibition at 300 µM (PDI) of the same compound?
Its inhibition at 300 µM is 30%.
